According to PubChem BioAssay (NCI):
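Assay format: 96-well plates, 48-hour exposure. TGI: concentration producing complete growth inhibition.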

What was measured:
Test in all cases: NCI-60 cell line screen, 48 h
786-0 renal = system: 786-0 renal
A498 renal = system: A498 renal
A549 NSCLC = system: A549 NSCLC
ACHN renal = system: ACHN renal
CAKI-1 renal = system: CAKI-1 renal
CCRF-CEM leukemia = system: CCRF-CEM leukemia
COLO 205 colon = system: COLO 205 colon
DLD-1 colon = system: DLD-1 colon
DMS 114 small cell lung = system: DMS 114 small cell lung
DMS 273 small cell lung = system: DMS 273 small cell lung
EKVX NSCLC = system: EKVX NSCLC
HCC-2998 colon = system: HCC-2998 colon
HCT-116 colon = system: HCT-116 colon
HCT-15 colon = system: HCT-15 colon
HL-60(TB) leukemia = system: HL-60(TB) leukemia
HOP-18 NSCLC = system: HOP-18 NSCLC
HOP-62 NSCLC = system: HOP-62 NSCLC
HOP-92 NSCLC = system: HOP-92 NSCLC
HT29 colon = system: HT29 colon
IGROV1 ovarian = system: IGROV1 ovarian
K-562 leukemia = system: K-562 leukemia
KM12 colon = system: KM12 colon
KM20L2 colon = system: KM20L2 colon
LOX IMVI melanoma = system: LOX IMVI melanoma
LXFL 529 NSCLC = system: LXFL 529 NSCLC
M14 melanoma = system: M14 melanoma
M19-MEL melanoma = system: M19-MEL melanoma
MALME-3M melanoma = system: MALME-3M melanoma
MOLT-4 leukemia = system: MOLT-4 leukemia
NCI-H226 lung = system: NCI-H226 lung
NCI-H23 lung = system: NCI-H23 lung
NCI-H460 lung = system: NCI-H460 lung
NCI-H522 lung = system: NCI-H522 lung
OVCAR-3 ovarian = system: OVCAR-3 ovarian
OVCAR-4 ovarian = system: OVCAR-4 ovarian
OVCAR-5 ovarian = system: OVCAR-5 ovarian
OVCAR-8 ovarian = system: OVCAR-8 ovarian
RPMI-8226 leukemia = system: RPMI-8226 leukemia
RXF 393 renal = system: RXF 393 renal
SF-268 CNS = system: SF-268 CNS
SF-295 CNS = system: SF-295 CNS
SF-539 CNS = system: SF-539 CNS
SK-MEL-2 melanoma = system: SK-MEL-2 melanoma
SK-MEL-28 melanoma = system: SK-MEL-28 melanoma
SK-MEL-5 melanoma = system: SK-MEL-5 melanoma
SK-OV-3 ovarian = system: SK-OV-3 ovarian
SN12C renal = system: SN12C renal
SNB-19 CNS = system: SNB-19 CNS
SNB-75 CNS = system: SNB-75 CNS
SNB-78 CNS = system: SNB-78 CNS
SR leukemia = system: SR leukemia
SW-620 colon = system: SW-620 colon
TK-10 renal = system: TK-10 renal
U251 CNS = system: U251 CNS
UACC-257 melanoma = system: UACC-257 melanoma
UACC-62 melanoma = system: UACC-62 melanoma
UO-31 renal = system: UO-31 renal
XF 498 CNS = system: XF 498 CNS
RXF-631 renal = system: RXF-631 renal

## COCOCC[C@@H]1CC=CC(NC(=O)OCc2ccccc2)C1/C=C/C(=O)CCC1OCCO1 (some centres not stated)
786-0 renal
  TGI: > 100 µM
A498 renal
  TGI: > 100 µM
A549 NSCLC
  TGI: > 100 µM
ACHN renal
  TGI: > 100 µM
CAKI-1 renal
  TGI: > 100 µM
CCRF-CEM leukemia
  TGI: 75.7 µM
COLO 205 colon
  TGI: 37.9 µM
DLD-1 colon
  TGI: 33.4 µM
DMS 114 small cell lung
  TGI: 86.5 µM
DMS 273 small cell lung
  TGI: > 59.1 µM
EKVX NSCLC
  TGI: > 100 µM
HCC-2998 colon
  TGI: > 100 µM
HCT-116 colon
  TGI: 33.1 µM
HCT-15 colon
  TGI: 32.2 µM
HL-60(TB) leukemia
  TGI: 51 µM
HOP-18 NSCLC
  TGI: > 100 µM
HOP-62 NSCLC
  TGI: > 100 µM
HOP-92 NSCLC
  TGI: > 100 µM
HT29 colon
  TGI: > 100 µM
IGROV1 ovarian
  TGI: > 100 µM
K-562 leukemia
  TGI: > 100 µM
KM12 colon
  TGI: 45.4 µM
KM20L2 colon
  TGI: > 93.3 µM
LOX IMVI melanoma
  TGI: 34 µM
LXFL 529 NSCLC
  TGI: 73 µM
M14 melanoma
  TGI: 88.4 µM
M19-MEL melanoma
  TGI: 43.3 µM
MALME-3M melanoma
  TGI: > 100 µM
MOLT-4 leukemia
  TGI: 43.4 µM
NCI-H226 lung
  TGI: > 100 µM
NCI-H23 lung
  TGI: 97.8 µM
NCI-H460 lung
  TGI: > 100 µM
NCI-H522 lung
  TGI: 34.7 µM
OVCAR-3 ovarian
  TGI: > 76.1 µM
OVCAR-4 ovarian
  TGI: > 74.4 µM
OVCAR-5 ovarian
  TGI: > 100 µM
OVCAR-8 ovarian
  TGI: 39.3 µM
RPMI-8226 leukemia
  TGI: 63.5 µM
RXF 393 renal
  TGI: > 75.9 µM
SF-268 CNS
  TGI: 99 µM
SF-295 CNS
  TGI: > 100 µM
SF-539 CNS
  TGI: > 63 µM
SK-MEL-2 melanoma
  TGI: > 76.5 µM
SK-MEL-28 melanoma
  TGI: > 63.3 µM
SK-MEL-5 melanoma
  TGI: > 100 µM
SK-OV-3 ovarian
  TGI: > 100 µM
SN12C renal
  TGI: > 68.5 µM
SNB-19 CNS
  TGI: > 100 µM
SNB-75 CNS
  TGI: > 90 µM
SNB-78 CNS
  TGI: > 100 µM
SR leukemia
  TGI: 23.6 µM
SW-620 colon
  TGI: 59.5 µM
TK-10 renal
  TGI: > 100 µM
U251 CNS
  TGI: 70.6 µM
UACC-257 melanoma
  TGI: 66.3 µM
UACC-62 melanoma
  TGI: > 75.4 µM
UO-31 renal
  TGI: > 100 µM
XF 498 CNS
  TGI: > 100 µM

## CN(C)CCC1(C2=CCCC2)CC/C(=C\c2ccccc2Cl)C1=O (configuration not stated)
786-0 renal
  TGI: 25.7 µM
A498 renal
  TGI: 28.4 µM
A549 NSCLC
  TGI: 28.4 µM
ACHN renal
  TGI: 31.1 µM
CCRF-CEM leukemia
  TGI: 29 µM
COLO 205 colon
  TGI: 41 µM
DLD-1 colon
  TGI: 37.4 µM
DMS 114 small cell lung
  TGI: 29.5 µM
EKVX NSCLC
  TGI: 29.3 µM
HCC-2998 colon
  TGI: 22.1 µM
HCT-116 colon
  TGI: 24.6 µM
HCT-15 colon
  TGI: 19.4 µM
HL-60(TB) leukemia
  TGI: 19.6 µM
HOP-18 NSCLC
  TGI: 24.8 µM
HOP-92 NSCLC
  TGI: 26.3 µM
HT29 colon
  TGI: 20.7 µM
IGROV1 ovarian
  TGI: 37.5 µM
K-562 leukemia
  TGI: 14.5 µM
KM12 colon
  TGI: 27.3 µM
KM20L2 colon
  TGI: 24.6 µM
LXFL 529 NSCLC
  TGI: 23.9 µM
M14 melanoma
  TGI: 26.8 µM
M19-MEL melanoma
  TGI: 54.1 µM
MALME-3M melanoma
  TGI: 28 µM
MOLT-4 leukemia
  TGI: 18.3 µM
NCI-H23 lung
  TGI: 30 µM
NCI-H460 lung
  TGI: 31 µM
OVCAR-3 ovarian
  TGI: 28.9 µM
OVCAR-4 ovarian
  TGI: 25.8 µM
OVCAR-5 ovarian
  TGI: 29.1 µM
OVCAR-8 ovarian
  TGI: 29.3 µM
RPMI-8226 leukemia
  TGI: > 100 µM
RXF 393 renal
  TGI: 17.5 µM
RXF-631 renal
  TGI: 28.1 µM
SF-268 CNS
  TGI: 28.7 µM
SF-295 CNS
  TGI: 27.9 µM
SF-539 CNS
  TGI: 28.9 µM
SK-MEL-2 melanoma
  TGI: 27.6 µM
SK-MEL-28 melanoma
  TGI: 26.2 µM
SK-MEL-5 melanoma
  TGI: 26.7 µM
SN12C renal
  TGI: 26.7 µM
SNB-19 CNS
  TGI: 27.8 µM
SNB-78 CNS
  TGI: 29 µM
SW-620 colon
  TGI: 25.2 µM
TK-10 renal
  TGI: 33.5 µM
U251 CNS
  TGI: 25.5 µM
UACC-257 melanoma
  TGI: 28.4 µM
UACC-62 melanoma
  TGI: 29.8 µM
UO-31 renal
  TGI: 20.1 µM
